The numbers were not newly measured in US8741563B2, “Metronidazole resistance in trichomonas vaginalis and single nucleotide polymorphisms” (priority 2011, dated 2014), which cites them from elsewhere.

Each structure is given as a SMILES string.

The subject of the data set is Trichomonas vaginalis. As to conditions: reported effectiveness of metronidazole treatment.

As for `Cc1ncc([N+](=O)[O-])n1CCO` [Metronidazole], the treatment effective was 85-95%.
